In US20120302609A1, “Pyrazolines for the Modulation of PKM2” (Dynamix Pharmaceuticals LTD., priority 2011, published 2012):

Biological target: T1, PKM2, human recombinant (Homo sapiens, UniProt P14618)
T1 construct: purchased BPS 50295
Experiment: PKM2 enzymatic activity assay (Kinase-Glo Plus luminescence);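 for Max activity Group: percent increase over no-compound signal after subtracting the no-PKM2 background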
Type: biochemical
Details: for AC50: 0.1 nM PKM2, 0.1 mM ADP, 0.5 mM PEP, 1 hour, room temperature, read-out: AC50 group; for Emax: 1 h, read-out: Max activity Group; for Max activity: 30 μM
Procedure: PKM2 performs the following enzymatic reaction, where the PKM2 substrates, PEP (phosphoenolpyruvate) and ADP, are converted to pyruvate and ATP as follows:
All of the enzymatic reactions were conducted in duplicates at room temperature for 1 hour in a 50 μL mixture containing: • PKM2 assay buffer (50 mM Imidazole, pH 7.2; 7 mM MgCl2; 50 mM KCl; 0.01% Tween; • and 0.05% BSA), 0.1 mM ADP, 0.5 mM PEP, 0.1 nM PKM2 enzyme (PKM2, human recombinant (BPS catalog number 50295)) and the indicated test compound. Fructose 1,6 biphosphat e, (FBP (Sigma)) was used as a positive control for activation at concentration of 0.5 mM. After enzymatic reactions, 50 μL of Kinase-Glo® Plus reagent (Promega kit) was added to each well and luminescence was measured using a BioTek Synergy™ 2 microplate reader.
PKM2 activity assays were performed in duplicates at each concentration. The luminescence data were analyzed using the computer software, GraphPad PRISM®. In the absence of the compound, the luminescence was defined as 0% activity. The percent activity in the presence of each compound was calculated according to the following equation:
% Activity=[(L−Lb)/(Lt−Lb)−1]×100%
where L=the luminescence in the presence of the test compound, Lb=the luminescence in the absence of PKM2, and Lt=the luminescence intensity in the absence of the test compound. The % activity values versus a series of compound concentrations were plotted using non-linear regression analysis of Sigmoidal dose-response curve generated with the equation Y=B+(T−B)/1+10^((LogEC50-X)×Hill Slope), where Y=percent activity, B=minimum percent activity, T=maximum percent activity, X=logarithm of compound and Hill Slope=slope factor or Hill coefficient. The AC50 values, shown in Table 2 were determined for the indicated test compounds as the concentration causing a half-maximal percent activity.

[1] = maximum percent activity, luminescence without compound = 0% activity

T1 sequence (P14618 whole entry): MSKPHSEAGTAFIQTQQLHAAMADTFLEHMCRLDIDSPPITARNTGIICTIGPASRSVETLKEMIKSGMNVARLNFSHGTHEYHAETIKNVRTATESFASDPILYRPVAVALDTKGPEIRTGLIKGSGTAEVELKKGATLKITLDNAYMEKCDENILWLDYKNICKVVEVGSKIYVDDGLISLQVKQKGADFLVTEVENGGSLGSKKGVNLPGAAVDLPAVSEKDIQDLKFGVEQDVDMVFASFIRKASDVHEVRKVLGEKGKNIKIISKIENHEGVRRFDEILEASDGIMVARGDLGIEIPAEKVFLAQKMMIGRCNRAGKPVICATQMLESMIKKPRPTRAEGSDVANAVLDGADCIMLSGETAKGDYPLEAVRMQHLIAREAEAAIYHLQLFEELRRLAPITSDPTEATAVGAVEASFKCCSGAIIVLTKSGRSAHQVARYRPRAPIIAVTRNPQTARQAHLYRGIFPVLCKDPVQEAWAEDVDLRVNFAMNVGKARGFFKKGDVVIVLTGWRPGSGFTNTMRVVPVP

## CCNS(=O)(=O)c1ccc(C2=NN(C(C)=O)C(c3ccc(OC)cc3)C2)cc1 (stereo not shown) [Compound 10A, 4-(1-acetyl-5-(4-methoxyphenyl)-4,5-dihydro-1H-pyrazol-3-yl)-N-ethylbenzenesulfonamide]
  AC50: ≤ 1000 nM
[1]
  Emax: 130 to 200%

## CC(=O)N1N=C(c2ccc(NS(=O)(=O)c3ccc(F)cc3)cc2)CC1c1ccc2c(c1)OCCO2 (stereo not shown) [Compound 8A, N-(4-(1-Acetyl-5-(2,3-dihydrobenzo[b][1,4]dioxin-6-yl)-4,5-dihydro-1H-pyrazol-3-yl)phenyl)-4-fluorobenzenesulfonamide]
  AC50: 1000 to 10000 nM
[1]
  Emax: 130 to 200%

## CC(=O)N1N=C(c2ccc(NS(=O)(=O)c3ccc(F)cc3)cc2)CC1c1ccc2c(c1)CCO2 (stereo not shown) [Compound 22A, N-(4-(1-Acetyl-5-(2,3-dihydrobenzofuran-5-yl)-4,5-dihydro-1H-pyrazol-3-yl)phenyl)-4-fluorobenzenesulfonamide]
  AC50: ≤ 1000 nM
[1]
  Emax: 130 to 200%

## CC(=O)N1N=C(c2ccc(NS(=O)(=O)c3ccc(F)cc3)cc2)CC1c1ccc(F)cc1 (single isomer, unassigned) [Compound 35A]
  AC50: ≤ 1000 nM
[1]
  Emax: ≤ 130%

## CCS(=O)(=O)Nc1ccc(C2=NN(S(C)(=O)=O)C(c3ccc(OC)cc3)C2)cc1 (stereo not shown) [Compound 55A]
  Max activity: −5% (30 μM)

## CCS(=O)(=O)Nc1ccc(C2=NN(C(C)=O)C(c3ccc4c(c3)OCCO4)C2)cc1 (stereo not shown) [Compound 4A]
  AC50: ≤ 1000 nM
[1]
  Emax: 130 to 200%

## CC(=O)N1N=C(c2ccc3c(c2)CCN3S(C)(=O)=O)CC1c1ccc2c(c1)OCCO2 (stereo not shown) [Compound 9A, 1-(5-(2,3-dihydrobenzo[b][1,4]dioxin-6-yl)-3-(1-(methylsulfonyl)indolin-5-yl)-4,5-dihydro-1H-pyrazol-1-yl)ethanone]
  AC50: 10000 to 100000 nM
[1]
  Emax: ≤ 130%

## CC(=O)N1N=C(c2ccc(NS(=O)(=O)c3ccc(F)cc3)cc2)CC1c1ccc(F)c(F)c1 (stereo not shown) [Compound 27A, N-(4-(1-Acetyl-5-(3,4-difluorophenyl)-4,5-dihydro-1H-pyrazol-3-yl)phenyl)-4-fluoro benzenesulfonamide]
  AC50: 1000 to 10000 nM
[1]
  Emax: ≤ 130%

## COc1ccc(C2CC(c3ccc(NS(=O)(=O)c4ccc(OC)cc4)cc3)=NN2C(C)=O)cc1 (racemic) [Compound 19A, N-(4-(1-Acetyl-5-(4-methoxyphenyl)-4,5-dihydro-1H-pyrazol-3-yl)phenyl)-4-methoxy benzenesulfonamide]
  AC50: ≤ 1000 nM
[1]
  Emax: ≥ 200%

## COc1ccc(C2CC(c3ccc(NS(=O)(=O)c4ccc5c(c4)OCCO5)cc3)=NN2C(C)=O)cc1 (stereo not shown) [Compound 7A, N-(4-(1-acetyl-5-(4-methoxyphenyl)-4,5-dihydro-1H-pyrazol-3-yl)phenyl)-2,3-dihydrobenzo[b][1,4]dioxine-6-sulfonamide]
  AC50: 1000 to 10000 nM
[1]
  Emax: 130 to 200%

## COc1ccc(C2CC(c3ccc(NS(=O)(=O)c4ccccc4)cc3)=NN2C(C)=O)cc1 (stereo not shown) [Compound 17A, N-(4-(1-Acetyl-5-(4-methoxyphenyl)-4,5-dihydro-1H-pyrazol-3-yl)phenyl)benzene sulfonamide]
  AC50: 1000 to 10000 nM
[1]
  Max activity Group: C (C: ≦130%)

## CCS(=O)(=O)Nc1ccc(C2=NN(C(C)=O)C(c3ccc(OC)cc3)C2)cc1 (single isomer, unassigned) [Compound 3A]
  AC50: ≤ 1000 nM
[1]
  Emax: 130 to 200%

## COc1ccc(C2CC(c3ccc(NS(=O)(=O)c4ccc(F)cc4)cc3)=NN2C(C)=O)cc1 (single isomer, unassigned) [Compound 12A]
  AC50: 10000 to 100000 nM
[1]
  Emax: ≤ 130%

## COc1ccc(C2CC(c3ccc(NS(=O)(=O)c4ccccc4)cc3)=NN2C(C)=O)cc1 (stereo not shown) [Compound 16A]
  AC50: 1000 to 10000 nM
[1]
  Emax: 130 to 200%

## COc1ccc(C2CC(c3ccc(NS(=O)(=O)c4c(F)cccc4F)cc3)=NN2C(=O)c2cccnc2)cc1 (stereo not shown) [Compound 15A, 2,6-difluoro-N-(4-(5-(4-methoxyphenyl)-1-nicotinoyl-4,5-dihydro-1H-pyrazol-3-yl)phenyl)benzenesulfonamide]
  AC50: 1000 to 10000 nM
[1]
  Emax: ≥ 200%

## COc1cc(C2CC(c3ccc(NS(C)(=O)=O)cc3)=NN2C(C)=O)cc(OC)c1OC (stereo not shown) [Compound 56A]
  Max activity: −6% (30 μM)

## COc1ccc(C2CC(c3ccc(NS(C)(=O)=O)cc3)=NN2C(C)=O)cc1OC (stereo not shown) [Compound 54A]
  Max activity: 6% (30 μM)

## CCS(=O)(=O)Nc1ccc(C2=NN(C(=O)c3ccco3)C(c3ccc(OC)cc3)C2)cc1 (stereo not shown) [Compound 53A]
  AC50: 1000 to 10000 nM
[1]
  Emax: ≥ 200%

## CC(=O)N1N=C(c2ccc(NS(C)(=O)=O)cc2)CC1c1ccc2c(c1)OCO2 (stereo not shown) [Compound 52A]
  AC50: ≤ 1000 nM
[1]
  Emax: ≤ 130%

## COc1ccc(C2CC(c3ccc(NS(=O)(=O)c4ccccc4C(F)(F)F)cc3)=NN2C(C)=O)cc1 (stereo not shown) [Compound 20A]
  AC50: ≤ 1000 nM
[1]
  Emax: 130 to 200%

## COc1ccc(C2CC(c3ccc(NS(=O)(=O)c4c(F)cccc4F)cc3)=NN2C(C)=O)cc1 (stereo not shown) [Compound 5A]
  AC50: ≤ 1000 nM
[1]
  Emax: ≥ 200%

## COc1ccc(C2CC(c3ccc(NS(=O)(=O)c4c(F)cccc4F)cc3)=NN2C(=O)c2ccccn2)cc1 (stereo not shown) [Compound 14A, 2,6-Difluoro-N-(4-(5-(4-methoxyphenyl)-1-picolinoyl-4,5-dihydro-1H-pyrazol-3-yl)phenyl)benzenesulfonamide]
  AC50: 1000 to 10000 nM
[1]
  Emax: ≤ 130%

## CCS(=O)(=O)Nc1ccc(C2=NN(C(C)=O)C(c3cccs3)C2)cc1 (stereo not shown) [Compound 67A]
  AC50: 10000 to 100000 nM
[1]
  Emax: 130 to 200%

## CC(=O)N1N=C(c2ccc(NS(=O)(=O)c3ccc(F)cc3)cc2)CC1c1ccc(F)cc1 (racemic) [Compound 25A, N-(4-(1-Acetyl-5-(4-fluorophenyl)-4,5-dihydro-1H-pyrazol-3-yl)phenyl)-4-fluoro benzenesulfonamide]
  AC50: ≤ 1000 nM
[1]
  Emax: ≤ 130%

## CCS(=O)(=O)Nc1ccc(C2=NN(C(C)=O)C(c3ccccc3F)C2)cc1 (stereo not shown) [Compound 57A]
  AC50: ≤ 1000 nM
[1]
  Emax: ≤ 130%

## CCS(=O)(=O)Nc1ccc(C2=NN(C(C)=O)C(c3ccc(OC)cc3)C2)cc1 (single isomer, unassigned) [Compound 2A, N-(4-(1-Acetyl-5-(4-methoxyphenyl)-4,5-dihydro-1H-pyrazol-3-yl)phenyl)ethane sulfonamide]
  AC50: ≤ 1000 nM

## COc1ccc(C2CC(c3ccc(NS(=O)(=O)c4c(F)cccc4F)cc3)=NN2C(=O)c2ccco2)cc1 (stereo not shown) [Compound 11A, 2,6-Difluoro-N-(4-(1-(furan-2-carbonyl)-5-(4-methoxyphenyl)-4,5-dihydro-1H-pyrazol-3-yl)phenyl)benzenesulfonamide]
  AC50: 1000 to 10000 nM
[1]
  Emax: ≥ 200%

## CCS(=O)(=O)Nc1ccc(C2=NN(C(C)=O)C(c3ccc(Cl)o3)C2)cc1 (stereo not shown) [Compound 59A]
  Max activity: 47% (30 μM)

## COc1ccc(C2CC(c3ccc(NS(=O)(=O)c4ccc(OC)c(F)c4)cc3)=NN2C(C)=O)cc1 (stereo not shown) [Compound 44A]
  AC50: ≤ 1000 nM
[1]
  Emax: 130 to 200%

## COc1ccc(C2CC(c3ccc(NS(=O)(=O)c4cccc(Cl)c4)cc3)=NN2C(C)=O)cc1 (stereo not shown) [Compound 28A, N-(4-(1-Acetyl-5-(4-methoxyphenyl)-4,5-dihydro-1H-pyrazol-3-yl)phenyl)-3-chloro benzenesulfonamide]
  AC50: 1000 to 10000 nM
[1]
  Emax: ≤ 130%
